Experimental data: patent publication US6342504B1, “Aromatic heterocyclic derivatives as enzyme inhibitors” (priority 1994, dated 2002)
Where a name gives a salt, the structure may show the parent alone. Read-outs that look alike come from different tables or passages of the source.

Columns and labels:
human alpha thrombin = biological target: T1, human alpha thrombin (Homo sapiens, UniProt P00734); assay: Thrombin (fIIa) IC50 assay, chromogenic substrate Pefachrome t-PA; type: biochemical
T1 construct: Purified human alpha-thrombin; purchased Enzyme Research Laboratories, Inc
Experimental: (§1) The ability of compounds of the present invention to act as a selective inhibitor of thrombin catalytic activity was assessed by determining the concentration of compound which inhibited the activity of this enzyme by 50%, (IC50), and comparing this value to that determined for all or some of the following related serine proteases: recombinant tissue plasminogen activator (rt-PA), plasmin, activated protein C, chymotrypsin, factor Xa and trypsin.
(§2) The buffer used for all assays was HBSA (10 mM HEPES, pH 7.5, 150 mM sodium chloride, 0.1% bovine serum albumin).
(§3) The assay for IC50 determinations was conducted by combining in appropriate wells of a Corning microtiter plate, 50 microliters of HBSA, 50 microliters of the test compound at a specified concentration (covering a broad concentration range) diluted in HBSA (or HBSA alone for VO (uninhibited velocity) measurement), and 50 microliters of the enzyme diluted in HBSA. Following a 30 minute incubation at ambient temperature, 50 microliters of the substrate at the concentrations specified below were added to the wells, yielding a final total volume of 200 microliters. The initial velocity of chromogenic substrate hydrolysis was measured by the change in absorbance at 405 nm using a Thermo Max® Kinetic Microplate Reader over a 5 minute period in which less than 5% of the added substrate was utilized. The concentration of added inhibitor which caused a 50% decrease in the initial rate of hydrolysis was defined as the IC50 value.
Enzyme activity was determined using the chromogenic substrate, Pefachrome t-PA (CH3SO2-D-hexahydrotyrosine-glycyl-L-Arginine-p-nitroaniline, obtained from Pentapharm Ltd.). The substrate was reconstituted in deionized water prior to use. Purified human a-thrombin was obtained from Enzyme Research Laboratories, Inc. The buffer used for all assays was HBSA (10 mM HEPES, pH 7.5, 150 mM sodium chloride, 0.1% bovine serum albumin).
IC50 determinations were conducted where HBSA ([…]), a-thrombin (50 μl) and inhibitor (50 μl) (covering a broad concentration range), were combined in appropriate wells and incubated for 30 minutes at room temperature prior to the addition of substrate Pefachrome-t-PA (50 μl). The initial velocity of Pefachrome t-PA hydrolysis was measured by the change in absorbance at 405 nm using a Thermo Max® Kinetic Microplate Reader over a 5 minute period in which less than 5% of the added substrate was utilized. The concentration of added inhibitor which caused a 50% decrease in the initial rate of hydrolysis was defined as the IC50 value.

human aPC = biological target: T2, human aPC (Homo sapiens, UniProt P04070); assay: biochemical; details: 30 minute incubation; for IC50: read-out: aPC (IC50) (Table 3A)
T2 construct: purchased Hematologic Technologies, Inc
Experimental: as §2
Following a 30 minute incubation at ambient temperature, 50 microliters of the substrate at the concentrations specified below were added to the wells, yielding a final total volume of 200 microliters.
Activated Protein C (aPC) Assay
aPC catalytic activity was determined using the chromogenic substrate, Pefachrome PC (delta-carbobenzloxy-D-lysine-L-prolyl-L-arginine-p-nitroaniline dihydrochloride), obtained from Pentapharm Ltd.). […] Purified human aPC was obtained from Hematologic Technologies, Inc. The enzyme was diluted into HBSA prior to assay in which the final concentration was 1.0 nM.

human plasmin = human plasmin (Homo sapiens, UniProt P00747); assay: biochemical; details: 30 minute incubation
Experimental: as §1, §2, §3
Plasmin catalytic activity was determined using the chromogenic substrate, S-2366 [L-pyroglutomyl-L-prolyl-L-arginine-p-nitroaniline hydrochloride], which was obtained from Pharmacia-Upjohn. The substrate was made up in deionized water followed by dilution in HBSA prior to the assay in which the final concentration was 300 micromolar (about 2.5-times Km). Purified human plasmin was obtained from Enzyme Research Laboratories, Inc. The enzyme was diluted into HBSA prior to assay in which the final concentration was […].

Human rt-PA (Activase) = biological target: T3, Human rt-PA (Activase) (Homo sapiens, UniProt P00750); assay: biochemical; details: 30 minute incubation
T3 construct: purchased Genentech Inc
Experimental: as §1, §2, §3
Recombinant Tissue Plasminogen Activator (rt-PA) Assay
rt-PA catalytic activity was determined using the substrate, Pefachrome t-PA (CH3SO2-D-hexahydrotyrosine-glycyl-L-arginine-p-nitroaniline, obtained from Pentapharm Ltd.). The substrate was made up in deionized water followed by dilution in HBSA prior to the assay in which the final concentration was 500 micromolar (about 3-times Km). Human rt-PA (Activase®) was obtained from Genentech Inc. The enzyme was reconstituted in deionized water and diluted into HBSA prior to the assay in which the final concentration was 1.0 nM.

[1] = read-out: Plasmin (IC50) (Table 3A)
[2] = read-out: rt-PA (IC50) (Table 3A)
[3] = read-out: Plasmin IC50 (Table 3B)
[4] = 30 minute incubation, read-out: Thrombin IC50 (Table 3C)

T3 sequence (P00750 36-562): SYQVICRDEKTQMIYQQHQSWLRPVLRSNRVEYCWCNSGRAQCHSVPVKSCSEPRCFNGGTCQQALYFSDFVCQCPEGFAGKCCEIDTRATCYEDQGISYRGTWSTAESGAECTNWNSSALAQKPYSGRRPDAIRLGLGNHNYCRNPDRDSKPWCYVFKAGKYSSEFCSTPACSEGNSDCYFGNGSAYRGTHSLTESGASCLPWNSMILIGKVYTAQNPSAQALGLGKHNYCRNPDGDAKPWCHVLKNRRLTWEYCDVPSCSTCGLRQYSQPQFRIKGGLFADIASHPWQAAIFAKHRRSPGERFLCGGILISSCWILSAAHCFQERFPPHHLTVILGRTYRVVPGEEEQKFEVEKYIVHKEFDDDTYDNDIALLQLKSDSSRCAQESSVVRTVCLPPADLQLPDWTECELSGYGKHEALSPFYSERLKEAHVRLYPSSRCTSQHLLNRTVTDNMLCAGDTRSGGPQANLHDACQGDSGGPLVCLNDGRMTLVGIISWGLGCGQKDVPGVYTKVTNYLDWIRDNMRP
T2 sequence (P04070 43-197): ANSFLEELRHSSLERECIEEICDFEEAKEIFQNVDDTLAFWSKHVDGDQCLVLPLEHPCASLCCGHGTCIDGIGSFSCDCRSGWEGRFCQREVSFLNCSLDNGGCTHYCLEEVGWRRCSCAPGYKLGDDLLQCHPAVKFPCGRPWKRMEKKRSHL
T2 sequence (P04070 212-461): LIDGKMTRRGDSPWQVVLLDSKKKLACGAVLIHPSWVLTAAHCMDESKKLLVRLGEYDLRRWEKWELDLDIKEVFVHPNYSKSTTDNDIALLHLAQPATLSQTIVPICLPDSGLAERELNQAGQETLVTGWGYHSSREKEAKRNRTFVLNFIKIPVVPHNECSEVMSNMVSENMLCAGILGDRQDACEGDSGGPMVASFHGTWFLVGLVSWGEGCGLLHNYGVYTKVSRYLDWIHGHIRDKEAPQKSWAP
Chain of human plasmin (P00747 97-580): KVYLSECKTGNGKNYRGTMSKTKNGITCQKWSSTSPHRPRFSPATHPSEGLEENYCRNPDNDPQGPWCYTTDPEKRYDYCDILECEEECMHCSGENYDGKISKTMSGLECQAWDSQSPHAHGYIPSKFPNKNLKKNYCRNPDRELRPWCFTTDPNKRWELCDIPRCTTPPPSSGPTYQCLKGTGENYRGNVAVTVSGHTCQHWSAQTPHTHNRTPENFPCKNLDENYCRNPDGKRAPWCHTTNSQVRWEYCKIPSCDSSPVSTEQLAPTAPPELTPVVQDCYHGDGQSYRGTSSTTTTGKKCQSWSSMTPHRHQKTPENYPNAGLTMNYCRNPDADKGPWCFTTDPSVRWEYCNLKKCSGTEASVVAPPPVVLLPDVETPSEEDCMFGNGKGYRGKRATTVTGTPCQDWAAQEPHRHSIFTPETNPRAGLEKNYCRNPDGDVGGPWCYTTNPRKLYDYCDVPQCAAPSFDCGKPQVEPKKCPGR
Chain of human plasmin (P00747 581-810): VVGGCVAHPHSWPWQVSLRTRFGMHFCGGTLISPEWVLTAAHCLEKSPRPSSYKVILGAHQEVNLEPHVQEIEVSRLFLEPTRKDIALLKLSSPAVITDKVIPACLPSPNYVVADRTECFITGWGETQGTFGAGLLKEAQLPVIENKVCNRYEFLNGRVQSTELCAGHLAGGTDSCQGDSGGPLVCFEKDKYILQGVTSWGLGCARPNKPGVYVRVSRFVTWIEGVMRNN

Row | Compound | IC50 (human alpha thrombin) [nM] | IC50 (human aPC) [nM] | IC50 (human plasmin; [1]) [nM] | IC50 (Human rt-PA (Activase); [2]) [nM] | IC50 (human plasmin; [3]) [nM] | also measured
1 | Cc1ccc(F)cc1S(=O)(=O)Nc1cccn(CC(=O)N[C@H](C=O)CCCNC(=N)N)c1=O [2-Me, 5-F-phenyl, [3-(2-methyl-5-fluorophenyl)sulfonylamino-2-oxo-1,2-dihydro-pyridyl]acetyl-L-argininal] | 1.97 | > 2500 | > 2500 | > 2500 | – | –
2 | COc1ccc(Cl)cc1S(=O)(=O)Nc1cccn(CC(=O)NC(C=O)CCCNC(=N)N)c1=O [2-OMe, 5-Cl-phenyl, (5-chloro-2-methoxy-phenylsulfonyl-3-amino-2-oxo-1,2-dihydropyridyl)acetyl-L-Argininal, trifluoroacetate salt] | 1.16 | > 2500 | > 2500 | > 2500 | – | –
3 | N=C(N)NCCC[C@@H](C=O)NC(=O)Cn1cccc(NS(=O)(=O)c2ccccc2C(F)(F)F)c1=O [Compound 2-CF3-phenyl] | 5.6 | > 2500 | > 2500 | > 2500 | – | –
4 | Cc1ccccc1S(=O)(=O)Nc1cccn(CC(=O)N[C@H](C=O)CCCNC(=N)N)c1=O [Compound 2-Me-phenyl, [3-(2-methylphenyl)sulfonylamino-2-oxo-1,2-dihydropyridyl]acetyl-L-argininal] | 1.4 | > 2500 | > 2500 | > 2500 | – | –
5 | N=C(N)NCCC[C@@H](C=O)NC(=O)Cn1cccc(NS(=O)(=O)c2ccccc2N)c1=O [Compound 2-NH2phenyl, [3-(2-aminophenyl)sulfonylamino-2-oxo-1,2-dihydropyridyl]acetyl-L-argininal] | 3.7 | > 2500 | > 2500 | > 2500 | – | –
6 | COc1ccccc1S(=O)(=O)Nc1cccn(CC(=O)N[C@H](C=O)CCCNC(=N)N)c1=O [Compound 2-OMe-phenyl, [3-(2-methoxylphenyl)sulfonylamino-2-oxo-1,2-dihydropyridyl]acetyl-L-argininal] | 1.98 | > 2500 | > 2500 | > 2500 | – | –
7 | N=C(N)NCCC[C@@H](C=O)NC(=O)Cn1cccc(NS(=O)(=O)c2cccc(C(F)(F)F)c2)c1=O [Compound 3-CF3-phenyl, [3-(3-trifluoromethylphenyl)sulfonylamino-2-oxo-1,2-dihydro-pyridyl]acetyl-L-argininal] | 3.1 | > 2500 | > 2500 | > 2500 | – | –
8 | Cc1cccc(S(=O)(=O)Nc2cccn(CC(=O)N[C@H](C=O)CCCNC(=N)N)c2=O)c1 [Compound 3-Me-phenyl, [3-(3-methyiphenyl)sulfonylamino-2-oxo-1,2-dihydro-pyridyl]acetyl-L-argininal] | 0.85 | > 2500 | > 2500 | > 2500 | – | –
9 | COc1cccc(S(=O)(=O)Nc2cccn(CC(=O)N[C@H](C=O)CCCNC(=N)N)c2=O)c1 [Compound 3-OMe-phenyl, [3-(3-methoxylphenyl)sulfonylamino-2-oxo-1,2-dihydropyridyl]acetyl-L-argininal] | 0.65 | > 2500 | > 2500 | > 2500 | – | –
10 | N=C(N)NCCC[C@@H](C=O)NC(=O)Cn1cccc(NS(=O)(=O)c2ccccc2F)c1=O [Compound 121A] | 14.7 | – | – | – | > 2500 | –
11 | COc1ccc(OC)c(S(=O)(=O)Nc2cccn(CC(=O)N[C@H](C=O)CCCNC(=N)N)c2=O)c1 [Compound 121E, [3-(2,5-dimethoxyphenyl)sulfonylamino-2-oxo-1,2-dihydropyridyl]acetyl-L-argininal] | 0.597 | – | – | – | > 2500 | aPC IC50 (Table 3B) (human aPC): inactive; rtPA IC50 (Table 3B) (Human rt-PA (Activase)): inactive
12 | N=C(N)NCCC[C@@H](C=O)NC(=O)Cn1cccc(NS(=O)(=O)CCc2ccccc2)c1=O [Compound 121G, [3-(phenethyl)sulfonylamino-2-oxo-1,2-dihydropyridyl]acetyl-L-argininal] | 46.9 | – | – | – | ~2500 | –
13 | N=C(N)NCCC[C@@H](C=O)NC(=O)Cn1cccc(NS(=O)(=O)Cc2ccccc2F)c1=O [Compound 121J] | 0.763 | – | – | – | > 2500 | aPC IC50 (Table 3B) (human aPC): inactive; IC50 (Human rt-PA (Activase); read-out: rtPA IC50 (Table 3B)): > 2500 nM
14 | N=C(N)NCCC[C@@H](C=O)NC(=O)Cn1cccc(NS(=O)(=O)Cc2cccc(F)c2)c1=O [Compound 121K] | 0.882 | – | – | – | > 2500 | aPC IC50 (Table 3B) (human aPC): inactive; rtPA IC50 (Table 3B) (Human rt-PA (Activase)): inactive
15 | COC(=O)c1ccccc1CS(=O)(=O)Nc1cccn(CC(=O)N[C@H](C=O)CCCNC(=N)N)c1=O [Compound 121M] | 0.623 | – | – | – | > 2500 | –
16 | N=C(N)NCCC[C@@H](C=O)NC(=O)Cn1cccc(NS(=O)(=O)Cc2cc(F)ccc2F)c1=O [Compound 121P, [3-(2,5-difluorobenzyl)sulfonylamino-2-oxo-1,2-dihydropyridyl]acetyl-L-argininal] | 1.73 | – | – | – | > 2500 | aPC IC50 (Table 3B) (human aPC): inactive; IC50 (Human rt-PA (Activase); read-out: rtPA IC50 (Table 3B)): > 2500 nM
17 | Cc1ccc(F)cc1S(=O)(=O)Nc1ccc(C)n(CC(=O)N[C@H](C=O)CCCNC(=N)N)c1=O [Compound 126B, [3-(5-fluoro-2-methylphenyl)sulfonylamino-6-methyl-2-oxo-1,2-dihydro-pyridyl]acetyl-L-argininal] | 0.882 | – | – | – | > 2500 | aPC IC50 (Table 3B) (human aPC): inactive; rtPA IC50 (Table 3B) (Human rt-PA (Activase)): inactive
18 | COc1cccc(S(=O)(=O)Nc2ccc(=O)n(CC(=O)N[C@H](C=O)CCCNC(=N)N)c2)c1OC [Compound 152B, [5-(2,3-dimethoxy-benzene)sulfonylamino-2-oxo-1,2-dihydropyridyl]acetyl-L-argininal] | – | – | – | – | – | IC50 (human alpha thrombin; [4]): 14.9 nM
19 | Cc1ccc(NS(=O)(=O)Cc2ccccc2)c(=O)n1CC(=O)N[C@H](C=O)CCCNC(=N)N [Compound C, (3-benzylsulfonylamino-6-methyl-2-oxo-1,2-dihydro-1-pyridyl)acetyl-L-argininal, trifluoroacetate salt] | 0.467 | – | – | – | – | IC50 (human plasmin; read-out: IC50 Plasmin (Table 2)): > 2500 nM
20 | [2,3-methylenedioxy-benzene)sulfonylamino-2-oxo-1,2-dihydropyridyl]acetyl-L-argininal [Compound 152D] | – | – | – | – | – | IC50 (human alpha thrombin; [4]): 0.794 nM
21 | [5-(1,3-benzodioxole)sulfonylalmino-6-methyl-2-oxo-1,2-dihydro-pyridyl]acetyl-L-argininal [Compound 153D] | – | – | – | – | – | IC50 (human alpha thrombin; [4]): 0.31 nM
22 | [5-(1,3-benzodioxole)sulfonylamino-2-oxo-1,2-dihydropyridyl]acetyl-L-argininal [Compound 152A] | – | – | – | – | – | IC50 (human alpha thrombin; [4]): 0.807 nM
23 | [5-(1,4-benzodioxan)sulfonylamino-6-methyl-2-oxo-1,2-dihydro-pyridyl]acetyl-L-argininal [Compound 153B] | – | – | – | – | – | IC50 (human alpha thrombin; [4]): 0.274 nM
24 | [5-(2,3-dihydrobenzofuran)sulfonylamino-6-methyl-2-oxo-1,2-dihydro-pyridyl]acetyl-L-argininal [Compound 153C] | – | – | – | – | – | IC50 (human alpha thrombin; [4]): 0.266 nM
25 | [5-(2,3-dioxaspirocyclohexyl)-sulfonylamino-2-oxo-1,2-dihydropyridyl]acetyl-L-argininal [Compound 152C] | – | – | – | – | – | IC50 (human alpha thrombin; [4]): 6.01 nM
